Source: patent US20260284208A1, “SYSTEM” (Oxford University Innovation Limited, priority 2023, published 2026)

Tests used:
Format in all cases: cell-based
[1] = target: wild-type IKZF1/IKZF3 ZF degron sequence (WT) fused to eGFP (Homo sapiens, UniProt Q96SW2+Q9UKT9); assay: GFP degradation flow cytometry assay (GFP:mCherry ratio), WT ZF-eGFP; settings: for percent degradation of WT ZF-GFP at 10 µM: 18 h, Jurkat, flow cytometry concentration curve; for degradation ability against the WT ZF sequence: flow cytometry assay
Sequence of wild-type IKZF1/IKZF3 ZF degron sequence (WT) fused to eGFP (Q9UKT9 130-189): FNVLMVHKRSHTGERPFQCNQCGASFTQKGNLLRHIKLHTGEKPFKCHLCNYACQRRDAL
Sequence of wild-type IKZF1/IKZF3 ZF degron sequence (WT) fused to eGFP (Q96SW2 whole entry, the tested form may be a part): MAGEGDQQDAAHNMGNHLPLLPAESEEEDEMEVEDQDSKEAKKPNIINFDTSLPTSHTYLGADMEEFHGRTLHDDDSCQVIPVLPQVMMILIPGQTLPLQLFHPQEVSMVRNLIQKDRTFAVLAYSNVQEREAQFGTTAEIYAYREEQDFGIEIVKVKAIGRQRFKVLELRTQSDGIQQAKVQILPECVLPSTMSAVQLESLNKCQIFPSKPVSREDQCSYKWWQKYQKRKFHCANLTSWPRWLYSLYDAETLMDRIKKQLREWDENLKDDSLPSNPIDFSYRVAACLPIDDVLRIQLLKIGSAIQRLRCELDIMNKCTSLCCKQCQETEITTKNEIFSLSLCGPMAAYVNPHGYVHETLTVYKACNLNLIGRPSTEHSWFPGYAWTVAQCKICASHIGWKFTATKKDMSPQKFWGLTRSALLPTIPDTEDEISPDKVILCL
Protocol: FIG. 2. A. A plasmid containing a ZF degron fused to GFP in the same gene as mCherry. Jurkats that have been lentivirally transduced with this plasmid will express ZF-GFP and mCherry at a consistent ratio. B Addition of an IMID such as pomalidomide will induce GFP degradation via the degron's functionality. C Incubation with an IMID produces a degradation curve.
(§1) Jurkat cells were added to 96 well U-bottom assay plates (Falcon) at 1×10^5 cells per well and treated with compounds for 18 hours at 37° C. and 5% CO2. Cells were stained with 1 μg/mL DAPI (ThermoFisher) and acquired on a Cytoflex S (Beckman Coulter). Data was analysed using FlowJo 10.8.1 (BD).
To test these compounds, we used a flow cytometry assay (FIG. 2) employing an Jurkat cells—an immortalised human blood cell line—that had been stably transduced with a plasmid using a lentiviral vector. This plasmid contained a gene for a 60 amino acid ZF region derived from IKZF3 fused to eGFP, separated from mCherry by an internal ribosomal entry site (IRES). This meant that these cells would express ZF-GFP and mCherry in consistent relative amounts, so under normal conditions the ratio of GFP:mCherry would remain the same regardless of overall expression levels. However, upon incubation with an IMID, ZF-GFP would be selectively degraded, altering this ratio and thus providing an easily measurable proxy for level of ZF degradation.
We carried out three biological replicates of this assay for each IMID analogue with a 0.1% DMSO control and six concentrations of IMID (1 nM, 10 nM, 100 nM, 1 μM, 10 μM and 100 μM) for each compound. This yielded a degradation curve for each compound, from which a pDC50 value could be derived, indicating how potent a degrader each of our compound were relative to thalidomide, lenalidomide and pomalidomide.

[2] = target: AEVK-GFP in transduced Jurkat cells (Homo sapiens, UniProt Q96SW2+Q9UKT9, N149E/Q147A/Q150V/S154K); assay: Immunoblotting of AEVK ZF-eGFP; settings: 10 μM; Jurkats transduced with AEVK-GFP
Sequence of AEVK-GFP in transduced Jurkat cells (Q9UKT9 130-189 Q147A/N149E/Q150V/S154K): as the sequence (Q9UKT9 130-189) above, with Q18A, N20E, Q21V, S25K counted along it
Sequence of AEVK-GFP in transduced Jurkat cells (Q96SW2 whole entry): as the sequence (Q96SW2 whole entry, the tested form may be a part) above
Protocol: Jurkat cells were added to T25 flasks (Falcon) at 2×10^6 cells per flask and were incubated with compounds for 18 hours at 37° C. and 5% CO2. Cells were lysed in buffer containing 9 M urea (Sigma), 75 mM Tris-HCl (Sigma), 0.15 M β-mercaptoethanol (Merck) and 10× diluted protease inhibitor cocktail (Merck). Cells lysates were sonicated for 10 seconds 3 times, centrifuged at 13000 rpm for 10 minutes at 4° C. and the supernatants were transferred into fresh tubes. Protein concentrations were measured using a Pierce BCA Protein Assay Kit (Thermo). Proteins were boiled in Laemmli sample buffer (Bio-Rad) for 5 minutes at 100° C. and separated by SDS-PAGE (7.5% Mini-PROTEAN TGX gels, Bio-Rad) and compared to the PageRuler Prestained Protein Ladder (Thermo). Semi-dry blotting was done on a Trans-Blot Turbo Transfer System (Bio-Rad) with the Trans-Blot Turbo RTA Mini 0.2 μm PVDF Transfer Kit (Bio-Rad) using the default mixed molecular weight mode. […] Membranes were scanned with a Bio-Rad ChemiDoc XRS+ Imaging System (Bio-Rad) and signal intensities were quantified using Image Lab software (Bio Rad). Band densitometry was assessed, normalized to vinculin bands, and reported as percentage of the DMSO control lane.

[3] = target: Q147A mutated ZF (ANQS) fused to eGFP (Homo sapiens, UniProt Q96SW2+Q9UKT9, Q147A); assay: GFP degradation flow cytometry assay, Q147A mutant ZF-eGFP; settings: for orthogonality index value (from pDC50 Q147A and pDC50 WT): Q147A vs WT ZF, compounds with Q147A Dmax >=0.4 dismissed, 1080 min; for degradation against Q147A relative to WT: flow cytometry, pDC50 comparison
Sequence of Q147A mutated ZF (ANQS) fused to eGFP (Q9UKT9 130-189 Q147A): as the sequence (Q9UKT9 130-189) above, with Q18A counted along it
Sequence of Q147A mutated ZF (ANQS) fused to eGFP (Q96SW2 whole entry, the tested form may be a part): as the sequence (Q96SW2 whole entry, the tested form may be a part) above
Protocol: as §1
To probe the potential for orthogonality in a bump-and-hole context, the same assay was carried out again on all compounds, but this time with a Q147A mutated ZF.
The pDC50 values derived from this screen were used along with the pDC50 values from the WT screen to assign an orthogonality index value to every compound according the following equation: […]

[4] = target: endogenous IKZF3 in Jurkat cells (Homo sapiens, UniProt Q96SW2+Q9UKT9); assay: Immunoblotting of endogenous IKZF3; settings: for endogenous IKZF3 level relative to DMSO control (Western blot): 1 μM or 10 μM, untransduced Jurkat cells; for ability to degrade endogenous IKZF3 (Western blot): even at 10 uM
Sequence of endogenous IKZF3 in Jurkat cells (Q9UKT9 whole entry): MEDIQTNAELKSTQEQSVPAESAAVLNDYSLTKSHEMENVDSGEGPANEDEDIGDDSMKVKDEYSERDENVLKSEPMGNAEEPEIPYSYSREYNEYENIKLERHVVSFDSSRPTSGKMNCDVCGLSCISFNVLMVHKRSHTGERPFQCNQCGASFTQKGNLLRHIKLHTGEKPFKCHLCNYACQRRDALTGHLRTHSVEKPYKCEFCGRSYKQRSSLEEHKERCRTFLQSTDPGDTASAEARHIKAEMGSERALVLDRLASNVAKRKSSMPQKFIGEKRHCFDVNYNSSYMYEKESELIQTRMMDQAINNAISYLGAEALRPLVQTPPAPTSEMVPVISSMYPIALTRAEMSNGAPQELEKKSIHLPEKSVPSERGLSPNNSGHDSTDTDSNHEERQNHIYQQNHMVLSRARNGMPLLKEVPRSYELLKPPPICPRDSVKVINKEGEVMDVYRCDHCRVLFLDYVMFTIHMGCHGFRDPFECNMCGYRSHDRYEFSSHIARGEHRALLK
Sequence of endogenous IKZF3 in Jurkat cells (Q96SW2 whole entry): as the sequence (Q96SW2 whole entry, the tested form may be a part) above
Protocol: Jurkat cells were added to T25 flasks (Falcon) at 2×10^6 cells per flask and were incubated with compounds for 18 hours at 37° C. and 5% CO2. Cells were lysed in buffer containing 9 M urea (Sigma), 75 mM Tris-HCl (Sigma), 0.15 M β-mercaptoethanol (Merck) and 10× diluted protease inhibitor cocktail (Merck). Cells lysates were sonicated for 10 seconds 3 times, centrifuged at 13000 rpm for 10 minutes at 4° C. and the supernatants were transferred into fresh tubes. Protein concentrations were measured using a Pierce BCA Protein Assay Kit (Thermo). Proteins were boiled in Laemmli sample buffer (Bio-Rad) for 5 minutes at 100° C. and separated by SDS-PAGE (7.5% Mini-PROTEAN TGX gels, Bio-Rad) and compared to the PageRuler Prestained Protein Ladder (Thermo). Semi-dry blotting was done on a Trans-Blot Turbo Transfer System (Bio-Rad) with the Trans-Blot Turbo RTA Mini 0.2 μm PVDF Transfer Kit (Bio-Rad) using the default mixed molecular weight mode. Membranes were blocked in 5% non-fat dry milk (Bio Rad) in TBS-T. Primary IKZF3 (D1C1E, Cell Signaling Technology Europe), eGFP (F56-6A1.2.3, Thermo) and vinculin (E1E9V, Cell Signaling Technology Europe and sc-25336, Santa Cruz Biotechnologies) antibodies were diluted 1000×, 500× and 50× respectively in 5% non-fat dry milk in TBS-T. Membranes were incubated with primary antibodies overnight at 4° C., washed with TBS-T 3 times, incubated with HRP conjugated secondary antibodies (Promega) for 1 hour at room temperature, washed with TBS-T 3 times and imaged with Clarity Western ECL substrate (Bio-Rad). Membranes were scanned with a Bio-Rad ChemiDoc XRS+ Imaging System (Bio-Rad) and signal intensities were quantified using Image Lab software (Bio Rad). Band densitometry was assessed, normalized to vinculin bands, and reported as percentage of the DMSO control lane.

Structure (SMILES): CC(C)(C)c1ccc2c(c1)C(=O)N(C1CCC(=O)NC1=O)C2=O (centres unmarked) [A63, 5-(tert-butyl)-2-(2,6-dioxopiperidin-3-yl)isoindoline-1,3-dione]
- percent degradation of WT ZF-GFP at 10 µM [1]: 60 to 70%
- degradation ability against the WT ZF sequence [1]: some degradation ability
- degradation of AEVK-GFP (Western blot) [2]: full degradation
- orthogonality index value (from pDC50 Q147A and pDC50 WT) [3]: > 10
- degradation against Q147A relative to WT [3]: improved degradation
- endogenous IKZF3 level relative to DMSO control (Western blot) [4]: unaffected
- level of endogenous IKZF3 (Western blot) ([4]; 10 μM, Jurkats transduced with AEVK-GFP): remains unaffected
- ability to degrade endogenous IKZF3 (Western blot) [4]: neither A63 nor B08 possess ability to degrade endogenous IKZF3

Structure (SMILES): CN1CCN(c2ccc3c(c2)C(=O)N(C2CCC(=O)NC2=O)C3=O)CC1 (centres unmarked) [B08, 2-(2,6-dioxopiperidin-3-yl)-5-(4-methylpiperazin-1-yl)isoindoline-1,3-dione]
- percent degradation of WT ZF-GFP at 10 µM [1]: 60 to 70%
- degradation ability against the WT ZF sequence [1]: some degradation ability
- orthogonality index value (from pDC50 Q147A and pDC50 WT) [3]: > 10
- degradation against Q147A relative to WT [3]: improved degradation
- endogenous IKZF3 level relative to DMSO control (Western blot) [4]: unaffected
- ability to degrade endogenous IKZF3 (Western blot) [4]: neither A63 nor B08 possess ability to degrade endogenous IKZF3
